Laboratory results as given in patent US20220378773A1, “METHODS FOR TREATING LEUKEMIA AND USE OF A LEUKEMIC STEM CELL SIGNATURE TO PREDICT CLINICAL SENSITIVITY TO THERAPIES” (CELGENE CORPORATION, priority 2019, published 2022).
“Also recorded” adds a separate entry of the source. Marks after values point to notes of the source that are not given here.

What was measured:
[1] = system: leukemic stem cells (LSCs); assay: Secondary transplantation without limiting dilution; format: in vivo, NOD/SCID mice
Protocol: (§1) For secondary transplant NOD/SCID mice were sublethally irradiated (275 cGy) and pretreated with anti-CD122 antibody (200 μg/mouse) to deplete residual host natural killer cells. On the day of transplantation, viably frozen cells harvested from the vehicle- or Compound D-treated primary mice were thawed, counted, mouse-cell depleted (Mouse Cell Depletion Kit, Miltenyi Biotec, USA), and transplanted intrafemorally into the pretreated secondary mice at limiting doses described above. For secondary transplant without LDA, thawed cells were not depleted of mouse cells before transplantation. At 12 weeks post secondary transplantation, mice were euthanized, and bone marrow was collected and analyzed.
To determine if quiescent LSCs are resistant to Compound D, secondary transplantation of AML cells of high responders was performed. High responders were identified as samples in which leukemia cells were almost undetectable in the primary mouse bone marrow following Compound D treatment. If rare quiescent LSCs are maintained in the residual leukemia cells following Compound D dosing, then those quiescent LSCs may become active and repopulate secondary mice after undergoing serial transplantations. Four LSC17 high samples that had AML blasts eradicated by Compound D treatment were selected for secondary transplantation (see Table 9) by injecting total combined bone marrow cells collected from 5 primary mice treated with either vehicle or Compound D into 5 secondary mice. In this way cells collected from one primary mouse were injected into one secondary mouse without any cell dose dilution or losing any residual cells. […] Cells from AML Patient 150238 harvested from vehicle-treated primary mice repopulated only one of 5 secondary mice.

[2] = system: leukemic stem cells (LSCs); assay: Secondary xenograft limiting dilution assay (LDA); format: in vivo, NOD/SCID mice; details: for Fold reduction of LSC frequency by Compound D: relative to vehicle; for No. mice engrafted/No. mice transplanted: from Compound D-treated primary mice
Protocol: Secondary xenograft limiting dilution assay: To determine whether Compound D targeted leukemia stem cells with self-renewal ability, which are considered to contribute to leukemia progression, therapy-resistance, and relapse, secondary transplantation was performed using LDA. Limiting dilution assays are designed to define an unknown frequency of LSCs in the total leukemia graft of primary mice. LDA analysis in secondary transplantation will allow quantitative determination whether Compound D targets LSCs with self-renewal ability in primary mice. For this, multiple cell doses were used for secondary transplant to achieve both a positive response (engrafted mice at high cell doses) and a negative response (non-engrafted mice at lowest cell dose). Four different AML cell doses for each treated group (1 million, 500,000, 50,000 and 2000 cells/mouse) with 5 mice per cell dose, totally 40 mice for each AML graft sample. For any sample that was considered aggressive, LDA was performed with lower cell doses. The frequency of LSCs was analyzed using the Walter and Eliza Hall Institute (WEHI) bioinformatics extreme limiting dilution analysis (ELDA) software (bioinf.wehi.edu.au).
as §1
Limiting dilution assay: Limiting dilution assays were used to define the frequency of leukemia stem cells in the total leukemia graft of the primary mice. Therefore, analysis of LDA in secondary transplantation will allow quantitative determination whether Compound D targets leukemia stem cells with self-renewal ability in primary mice. For this, multiple cell doses were used for secondary transplant to achieve both a positive response (engrafted mice at high cell doses) and a negative response (non-engrafted mice at lowest cell dose). Four different AML cell doses for each treated group were used (1 million, 500,000, 50,000 and 2000 cells/mouse) with 5 mice per cell dose, totally 40 mice for each leukemia graft sample. For any sample that was considered aggressive, LDA was performed with lower cell doses. The frequency of LSCs was analyzed using the Walter and Eliza Hall Institute (WEHI) bioinformatics extreme limiting dilution analysis (ELDA) software (bioinfwehi.edu.au).
Intrafemoral transplantation: One day prior to transplantation, NOD/SCID mice were sublethally irradiated (275 cGy) and pretreated with anti-CD122 antibody (200m/mouse) to deplete residual host natural killer cells. On the day of transplantation, viably frozen cells harvested from combined vehicle- or Compound D-treated (2.5 mg/kg intraperitoneally twice daily for 14 days, Section 6.1) primary mice were thawed, counted, mouse cell depleted, and transplanted intrafemorally into the pretreated secondary mice at limiting doses in a total volume of 30 μl. For the Compound D-treated samples with low human AML engraftment 25%), cells from both RF and BM were combined and 2 rounds of mouse depletion were performed to ensure a high human AML cell purity. […] Mouse cell depletion was performed following the instructions provided by Miltenyi Biotec (Mouse Cell Depletion Kit, catalogue number 130-104-694, Miltenyi Biotec, Germany). […]

O=C1CCC(N2Cc3cc(CNC(=O)C(F)(F)c4ccc(Cl)cc4)ccc3C2=O)C(=O)N1 (centres unmarked) [Compound D, 2-(4-chlorophenyl)-N-((2-(2,6-dioxopiperidin-3-yl)-1-oxoisoindolin-5-yl)methyl)-2,2-difluoroacetamide] was tested, and the “repopulation of secondary mice” value ([1]; AML 0590 and AML 110102, cells from Compound D-treated primary mice) was “did not repopulate the secondary mice”, the “LSC Status in Secondary Mice Injected with Compound D Treated Primary Cells” value (“LSC Status in Secondary Mice Injected” for short) ([1]; Patient 110625) was “repopulated the bone marrow of one secondary mouse; also recorded: LSC in BM” and the “No. mice with LSC engrafted/No. injected mice in the group” value (shortened to “No. mice … in the group”) ([1]; Patient 110625, cells from Compound D-treated primary mice) was 1/5 (in BM. For the same molecule, the “LSC Status in Secondary Mice Injected” value ([1]; Patient 130311) was “did not proliferate/repopulate any of the secondary mice; also recorded: not engrafted”, the “No. mice … in the group” value ([1]; Patient 130311, cells from Compound D-treated primary mice) was 0/4 and the “LSC Status in Secondary Mice Injected” value ([1]; Patient 130826) was “did not proliferate/repopulate any of the secondary mice; also recorded: not engrafted”. The “No. mice … in the group” value ([1]; Patient 130826, cells from Compound D-treated primary mice) was 0/5, the “LSC Status in Secondary Mice Injected” value ([1]; Patient 150238) was “did not repopulate any secondary mice; also recorded: no LSC” and the “No. mice … in the group” value ([1]; Patient 150238, cells from Compound D-treated primary mice) was 0/5. The “AML engraftment in secondary mice” value ([2]; AML 90191, cells from Compound D primary-treated mice, about 12 weeks) was “no AML engraftment”, the “leukemia graft in secondary mice vs vehicle-treated cells” value ([2]; AML 110500) was “much lower leukemia graft” and the “LSC frequency, vehicle- vs Compound D-treated primary mice” value ([2]; AML 120860, non-injected BM data) was “no difference in LSC frequency; also recorded: no difference for LSC frequency”. For the same molecule, the “LSC frequency increase following treatment” value ([2]; AML Patient 110484) was 1.6 fold, the “LSC frequency increase following treatment” value ([2]; AML Patient 120846) was 1.8 fold and the “LSC frequency increase following treatment” value ([2]; AML Patient 120860) was 1.3 fold. For the same molecule, the “LSC frequency increase following treatment” value ([2]; AML Patient 130695) was 12.6 fold, the LSC frequency ([2]; AML Patient 130926 (responder)) was “did not reduce LSC frequency” and the “LSC frequency (1/total number), Compound D” value ([2]; Patient 598, cells from RF of treated primary mice) was 675569 1/total number. The “Fold reduction of LSC frequency by Compound D” value (shortened to “Fold reduction of LSC frequency”) ([2]; Patient 598) was 2.1 fold, the “LSC frequency (1/total number), Compound D” value ([2]; Patient 90191, cells from RF + BM of treated primary mice) was “Not engrafted” and the “LSC frequency (1/total number), Compound D” value ([2]; Patient 100348, cells from RF + BM of treated primary mice) was 923814 1/total number. The “Fold reduction of LSC frequency” value ([2]; Patient 100348) was 4.0 fold, the “LSC frequency (1/total number), Compound D” value ([2]; Patient 110484, cells from RF of treated primary mice) was 1153831 1/total number and the “Fold reduction of LSC frequency” value ([2]; Patient 110484, negative sign = increase) was −1.6 ^a fold. The “LSC frequency (1/total number), Compound D” value ([2]; Patient 110500, cells from RF of treated primary mice) was 356239 1/total number, the “LSC frequency (1/total number), Compound D” value ([2]; Patient 120791, cells from RF + BM of treated primary mice) was “Not engrafted” and the “LSC frequency (1/total number), Compound D” value ([2]; Patient 120846, cells from RF of treated primary mice) was 14523 1/total number. The “Fold reduction of LSC frequency” value ([2]; Patient 120846, negative sign = increase) was −1.8 ^a fold, the “LSC frequency (1/total number), Compound D” value ([2]; Patient 120860, cells from BM of treated primary mice) was 65626 1/total number and the “Fold reduction of LSC frequency” value ([2]; Patient 120860, negative sign = increase) was −1.3 ^a fold. For the same molecule, the “LSC frequency (1/total number), Compound D” value ([2]; Patient 120899, cells from BM of treated primary mice) was 27120 1/total number, the “Fold reduction of LSC frequency” value ([2]; Patient 120899) was 4.0 fold and the “LSC frequency (1/total number), Compound D” value ([2]; Patient 121020, cells from RF+BM of treated primary mice) was 7562084 1/total number. For the same molecule, the “Fold reduction of LSC frequency” value ([2]; Patient 121020) was 1.5 fold, the “No. mice engrafted/No. mice transplanted” value ([2]; Patient 130578, 5000 cells transplanted/mouse) was 0/5 and the “No. mice engrafted/No. mice transplanted” value ([2]; Patient 130578, 20000 cells transplanted/mouse) was 0/5. For the same molecule, the “No. mice engrafted/No. mice transplanted” value ([2]; Patient 130578, 50000 cells transplanted/mouse) was 2/5, the “No. mice engrafted/No. mice transplanted” value ([2]; Patient 130578, 120000 cells transplanted/mouse) was 2/3 and the “Fold reduction of LSC frequency” value ([2]; Patient 130578) was 9.4 fold. For the same molecule, the “LSC frequency (1/total number), Compound D” value ([2]; Patient 130695, cells from RF of treated primary mice) was 36696 1/total number, the “Fold reduction of LSC frequency” value ([2]; Patient 130695, negative sign = increase) was −12.6*** ^a fold and the “LSC frequency (1/total number), Compound D” value ([2]; Patient 130712, cells from BM of treated primary mice) was 758064 1/total number. For the same molecule, the “Fold reduction of LSC frequency” value ([2]; Patient 130712) was 2.7 fold, the “LSC frequency (1/total number), Compound D” value ([2]; Patient 130926, cells from RF + BM of treated primary mice) was 1207241 1/total number and the “Fold reduction of LSC frequency” value ([2]; Patient 130926) was 1.0 fold. The “LSC frequency (1/total number), Compound D” value ([2]; Patient 140171, cells from RF + BM of treated primary mice) was “Not engrafted” and the “responsive leukemia samples with LSCs targeted” value ([2]; mouse, in vivo) was 6 out of 10 samples.
